From patent US10988444B2, “Antimicrobial compounds” (NEWSOUTH INNOVATIONS PTY LIMITED, priority 2016, dated 2021) come the findings set out here.

Values after ≈ are worked out from the molar mass of the structure shown. Values joined by “and” are separate entries in the source; they are usually repeats but may differ in a detail not shown here. Equal entries are not always repeated. Where two headings read alike, the source gives them in different places.

The test system of one data set is S. aureus (SA38). Description: Minimal inhibitory concentration (MIC) assay, Example 2. Conditions: Staphylococcus aureus, TSB, 37° C., 24 h. The data set is classed as cell-based. The procedure:
A single colony of bacteria was cultured overnight in TSB at 37° C. The resulting bacterial culture was collected by centrifugation and re-suspended in TSB twice. The optical density (OD) of the resulting culture was adjusted to OD600=0.1 in TSB (equivalent to 10^8 colony forming unit (CFU)/mL bacteria), and was further diluted to 10^5 CFU/mL in TSB. 100 μL of the bacterial solution was then added to wells of a 96-well plate containing 100 μL serially diluted compound, with final concentration ranging from 8-250 μM. The plates were then incubated at 37° C. for 24 h and the data was recorded by measuring the OD value at 600 nm using a Wallac Victor (Perkin-Elmer) microplate reader. […] Each experiment was performed in triplicate and was repeated in two independent experiments. The results of the MIC assay are given below in Table 2.

Data set [1] relates to MRC-5 normal human lung fibroblasts. Briefly: Cytotoxicity assay, Alamar blue, Example 2. The data set is classed as cell-based. Conditions: for IC50: Homo sapiens, MRC5, MRC-5, concentration which killed half of the cells. Here is the method: The in vitro toxicity of the compounds (24a, 38b, 42d, 43d) was determined against MRC-5 normal human lung fibroblasts using the Alamar blue assay (see O'Brien, J.; Wilson, I.; Orton, T.; Pognan, F. Eur. J. Biochem. 2000, 267 (17), 5421-5426). A dose-response curve for each compound was generated to determine the IC50 values (concentration of compound which killed half of the cells) and the IC50 values were then used to determine the therapeutic window (IC50 value divided by MIC value) and specificity of the compounds (Table 3).
(In general: Alamar Blue is a resazurin reagent that responds to reducing activity.)

Data set [2] can be described thus: Membrane conduction, tBLMs containing 30% POPG, Example 2. Conditions: negatively charged lipid, 50 μM, preliminary study. An excerpt:
Tethered bilayer lipid membranes (tBLMs) associated with alternating current electrical impedance spectroscopy techniques were employed to determine whether the compounds (24a, 38b, 42d, 43d) are lytic to cell membranes. Sparsely tethered tBLMs containing 30% palmitoyl-oleoyl-phosphati-dylglycerol (POPG) were created using the solvent-exchange technique described by Cranfield et al. in 2015 (see Cranfield, C. G.; Bettler, T.; Cornell, B. Langmuir 2015, 31 (1), 292-298). The tBLM conduction responses of compounds (24a, 38b, 42d, 43d) were compared to that of LL-37, a cathelicidin AMP that is known to permeabilise membranes.

The subject of data set [3] is MRC-5 normal human lung fibroblasts. Description: Toxicity assay, Alamar blue, Example 1. Type of data set: cell-based. Particulars: for IC50: Homo sapiens, MRC5, 72 h incubation, read-out: toxicity (IC50) against MRC-5 human fibroblast cells. The procedure:
The normal human lung fibroblasts MRC-5 were cultured in minimal essential medium (MEM, Invitrogen) supplemented with 10% foetal calf serum (FCS), 1% L-glutamine-penicillin-streptomycin, 2% sodium bicarbonate, 1% non-essential amino acids (NEAA) and 1% sodium pyruvate. The cell line was maintained at 37° C. in 5% CO2 as an adherent monolayer and was passaged upon reaching confluence by standard cell culture techniques. MRC-5 cells were seeded at 2×10^4 cells per well in 96-well plates to ensure full confluence (quiescence). Cells were treated 24 h after seeding with 0.1 to 1000 μM of compounds. After 72 h drug incubation, the treated media was replaced with fresh media containing 10% Alamar blue and the cells were incubated for another 6 h. The metabolic activity was detected by spectrophotometric analysis by assessing the absorbance of Alamar blue as previously described by Pasquier et. al (see Pasquier, E.; Ciccolini, J.; Carre, M.; Giacometti, S.; Fanciullino, R.; Pouchy, C.; Montero, M.-P.; Serdjebi, C.; Kavallaris, M.; André, N. Oncotarget 2011, 2, 797).
Cell proliferation was determined and expressed as a percentage of untreated control cells. The determination of IC50 values was performed using GraphPad Prism 6 (San Diego, Calif., USA).
To further evaluate the utility of these novel guanylated peptidomimetics for medical applications, it was essential to determine their specificity towards bacterial cells over mammalian cells.

Data set [4] has as its system E. coli. Briefly: Biofilm disruption assay, established biofilms, crystal violet staining. The data set is classed as cell-based. Particulars: 250 μM, 24 h treatment. The procedure: (§1) Bacterial cultures were grown in TSB media for overnight at 37° C. with shaking at 150 r.p.m. Cultures were diluted (1:20) in YPD medium and 200 μl aliquots were dispensed to flat bottom 96-well plate wells (Sarstedt Australia). Cultures were supplemented with varying concentrations of synthetic compounds dissolved in water. For pre-established biofilm assay, cultures were grown in 96-well plate wells overnight prior to supplementation with synthetic compounds. Control cultures were supplemented with an equal amount of DMSO. Plates were sealed with self-adhesive microplate sealers (TopSeal-A, PerkinElmer) to allow air diffusion and to prevent condensation. Cultures were incubated overnight at 37° C. with shaking at 150 r.p.m. Biofilms adhered on polystyrene substratum were quantified by crystal violet staining as described previously (see Wiegand, I.; Hilpert, K.; Hancock, R. E. W. Nat. Protocols 2008, 3 (2), 163-175). All cultures were prepared in triplicates. Error bars represent the standard error of three independent experiments (n=3).
(§2) The biofilm disruption activities of the compounds were investigated using crystal violet staining according to a previously published protocol (G. A. O'Toole, J Vis Exp, 2011, (47), pii: 2437, DOI: 10.3791/2437, 2437). The ability of compounds (34-38, 51-56, 61, 62, 65 and 66) to disrupt the established biofilms of the Gram-positive bacteria S. aureus and the Gram-negative bacteria Pseudomonas aeruginosa, Serratia marcescens and E. coli, was determined at a concentration of 250 μM. In this assay, bacterial cultures were grown on a polystyrene substratum overnight prior to treatment with the compounds. In addition, the ability of these compounds to inhibit the formation of biofilms of P. aeruginosa and S. marcescens was also investigated at 250 μM, whereby the bacterial cultures were grown in the presence of test compounds.

Data set [5] has as its system S. marcescens. The data set is described as above. Type of data set: cell-based, Serratia marcescens. Conditions: 250 μM, 24 h treatment. Here is the method: as §1, §2
The subject of data set [6] is E. coli. Briefly: Minimal inhibitory concentration (MIC) determination, Example 1. The data set is classed as cell-based. Particulars: 24 h, MHB, 37° C.; for MIC: Escherichia coli, read-out: Minimum inhibitory concentration (MIC) E. coli. The procedure:
(§3) The antibacterial activity of the compounds was determined by the determination of minimal inhibitory concentration (MIC) by following the previously published protocol (see Nizalapur, S.; Ho, K. K.; Kimyon, Ö.; Yee, E.; Berry, T.; Manefield, M.; Cranfield, C. G.; Willcox, M.; Black, D. S.; Kumar, N. Org. Biomol. Chem. 2016, 14, 3623). The compounds to be tested were dissolved and diluted in autoclaved Millipore water. A single colony of bacteria was cultured overnight in TSB at 37° C. The resulting bacteria were collected by centrifugation and re-suspended in the same volume of MHB twice. Optical density (OD) of the resulting culture was adjusted to 0.1 at 600 nm (10^8 CFU/mL) in MHB, and the adjusted culture was further diluted to […] in MHB. Then, 100 μL of the bacterial solution was added to wells of a 96-well plate containing 100 μL of serially diluted compound. Two controls were also prepared: one containing 100 μL of MHB media and 100 μL sterile water, and the other containing 100 μL of bacterial solution and 100 μL sterile water. […] The MIC value was determined as the lowest concentration of compound that inhibited the complete growth of the bacteria (i.e. OD similar to that of the control having no bacteria). Each experiment was performed in triplicate and was repeated in three independent experiments.
(§4) The results of the MIC assay are given below in Table 1.

Data set [7] deals with S. aureus. The description is as above. The data set is classed as cell-based. Conditions: Staphylococcus aureus. The procedure:
as §3, §4

The subject of data set [8] is S. marcescens. Briefly: Biofilm inhibition assay (inhibition of biofilm formation), crystal violet staining. The data set is classed as cell-based. Conditions: Serratia marcescens, 24 h. Here is the method: as §1, with “no-established” for “pre-established”, “along” for “prior to supplementation”, “water.” for “DMSO.”
as §2

Data set [9] deals with Pseudomonas aeruginosa (PAO1). Description: Biofilm disruption assay, established biofilms, crystal violet staining. The data set is classed as cell-based. Conditions: 250 μM, 24 h treatment. The procedure: as §1, §2
For data set [10], the system named is S. aureus. The description is as above. The data set is classed as cell-based. Particulars: 250 μM, 24 h treatment. Here is the method: as §1, §2
Where [11] appears, read: MHB, 37° C., 24 h, read-out: Minimum inhibitory concentration (MIC) S. aureus.
Setting [12] is: MIC in μM as compared with MRC-5 IC50, read-out: equivalent MIC values.

In the data set with S. aureus (SA38), `CCCCCCCCS(=O)(=O)Nc1ccc(Br)cc1C(=O)C(=O)NCCCN(C)C` [Compound 24a, 2-(5-Bromo-2-(octylsulfonamido)phenyl)-N-(3-(dimethylamino)propyl)-2-oxoacetamide] showed an MIC of 47 µM (≈ 23.7 µg/mL). Moreover, half-maximal inhibition in data set [1] (IC50) required 37.4 µM. Besides, in [1] (MRC-5), the “toxicity to human cells” value is reported as “high level of toxicity to human cells”. In addition, the tBLM conduction response result in data set [2] is listed as “showed conduction responses”.

Regarding `Cl.N=C(N)NCCCNC(=O)C(=O)c1cc(Br)ccc1NC(=O)c1ccc2ccccc2c1` [Compound 35, N-(4-Bromo-2-(2-((3-guanidinopropyl)amino)-2-oxoacetyl)phenyl)-2-naphthamide hydrochloride], the IC50 – broadly, the point on the concentration scale where inhibition reaches its midpoint – in data set [3] amounted to 174 µM. For the same compound, the “disruption of established biofilms of E. coli” value in the data set on E. coli [4] came out at 46%. Besides, in the data set with S. marcescens [5], the “disruption of established biofilms of S. marcescens” value was found to be 49%. The MIC with E. coli [6] was above 110 µg/mL; in the data set on S. aureus [7] (setting [11]), 6 µg/mL; in the data set on S. aureus [7] (setting [12]), 12.5 µM.

Consider `Cl.N=C(N)NCCCNC(=O)C(=O)c1cc(Cl)ccc1NC(=O)c1ccc2ccccc2c1` [Compound 36, N-(4-Chloro-2-(2-((3-guanidinopropyl)amino)-2-oxoacetyl)phenyl)-2-naphthamide hydrochloride], for which the 50% inhibitory concentration (IC50) in data set [3] was found to be 224 µM. For the same compound, the inhibition (usually the relative decrease from the control value, in per cent) at 250 µM in the data set with S. marcescens [8] is 71%. The “disruption of established biofilms of E. coli” value in the data set on E. coli [4] is listed as 43%. Besides, the MIC in the data set on E. coli [6] is above 110 µg/mL; in the data set with S. aureus [7] (setting [11]), 8 µg/mL; with S. aureus [7] (setting [12]), 16 µM.

In turn, `CCCCCCCCS(=O)(=O)Nc1ccc(Br)cc1C(=O)C(=O)NCCN(C)C.Cl` [Compound 38b, 2-(2-(5-Bromo-2-(octylsulfonamido)phenyl)-2-oxoacetamido)-N,N-dimethylethan-1-aminium chloride] yielded an MIC against S. aureus (SA38) of 63 µM. In data set [1], this compound showed a concentration for half-maximal inhibition (IC50) of 75.5 µM. For the same compound, the tBLM conduction response result in data set [2] is “showed conduction responses”.

In turn, `CCCCCCCCS(=O)(=O)Nc1ccccc1C(=O)C(=O)NCCCNC(=N)N.Cl` [Compound 42d, N-(3-Guanidinopropyl)-2-(2-(octylsulfonamido)phenyl)-2-oxoacetamide hydrochloride] yielded an MIC in the data set on S. aureus (SA38) of 47 µM. The IC50 in [1] is 373 µM. Besides, in [2], the tBLM conduction response result is “showed conduction responses”.

In the case of `Cl.N=C(N)NCCCC[C@H](NC(=O)C(=O)c1cc(F)ccc1NC(=O)c1ccc2ccccc2c1)C(=O)O` [Compound 53, N^2-(2-(2-(2-naphthamido)-5-fluorophenyl)-2-oxoacetyl)-N^6-carbamimidoyllysine hydrochloride], in the data set with S. marcescens [8], the inhibition at 250 µM is 67%. For the same compound, the “disruption of established biofilms of P. aeruginosa” value (“disruption … of P. aeruginosa” below) in data set [9] came out at 42%. Also, the “disruption of established biofilms of S. aureus” value in the data set with S. aureus [10] is given as 46%. The “disruption of established biofilms of S. marcescens” value in the data set on S. marcescens [5] was 40%. For the same compound, the results for the MIC with E. coli [6] and with S. aureus [7] (setting [11]) were 67 µg/mL and 108 µg/mL, respectively. The “Minimum inhibitory concentration (MIC) E. coli” value in the data set on E. coli [6] (hydrochloride) was 68 µg/mL.

In the case of `COC(=O)C(CCCN)NC(=O)C(CCCCN)NC(=O)C(=O)c1ccccc1NC(=O)c1ccc2ccccc2c1.Cl.Cl` (stereo not drawn) [Compound 61, Methyl2-(2-(2-(2-(2-naphthamido)phenyl)-2-oxoacetamido)-6-aminohexanamido)-5-aminopentanoate dihydrochloride], in data set [9], the “disruption … of P. aeruginosa” value is reported as 55%. Also, the “disruption of established biofilms of S. aureus” value with S. aureus [10] is 53%. For the same compound, the MIC with E. coli [6] came out at 39 µg/mL; with S. aureus [7] (setting [11]), 130 µg/mL.

Take `COC(=O)[C@H](CCCNC(=N)N)NC(=O)[C@H](CCCNC(=N)N)NC(=O)C(=O)c1cc(Br)ccc1NC(=O)c1ccc2ccccc2c1.Cl.Cl` [Compound 66, Methyl (2-(2-(2-naphthamido)-5-bromophenyl)-2-oxoacetyl)arginylargininate dihydrochloride]: the “toxicity (IC50) against MRC-5 human fibroblast cells” value in [3] (72 h incubation) is “not reaching a 50% reduction of cell viability at the highest tested dose”. For the same compound, the inhibition at 250 µM with S. marcescens [8] was determined as 69%. Besides, in data set [9] (dihydrochloride), the “disruption … of P. aeruginosa” value was 54% and 55%. Further, the MIC in the data set on E. coli [6] came out at 50 µg/mL; with S. aureus [7] (setting [11]), 10 µg/mL; with S. aureus [7] (setting [12]), 15.7 µM.
